Experimental data: patent US20230015595A1, “USE OF VALPROIC ACID FOR REDUCING POST-OPERATIVE SCARRING FOLLOWING A GLAUCOMA SURGERY” (SANTEN PHARMACEUTICAL CO., LTD., priority 2019, published 2023)
“Also recorded” adds a separate entry of the source.

Legend:
[1] = test system: rabbit model of microshunt implant surgery; assay: Rabbit model of microshunt implant surgery, MMC high/low dose and low dose MMC with VPA; format: in vivo
Method: The rabbit model of microshunt implant surgery using the PRESERFLO® MicroShunt (Santen) was performed and treated under these conditions: • (a) 0.4 mg/ml MMC via sponge for 1 min; • (b) 0.1 mg/ml MMC via sponge for 1 min; and • (c) 0.1 mg/ml MMC via sponge for 1 min in combination with a total of 11 injections of 300 μg/ml VPA, immediately after surgery, and once daily for first 7 days, followed by injections on days 10, 14 and 21 post-surgery.
The rabbit eyes were then evaluated.

[2] = test system: human Tenons conjunctival fibroblasts; assay: Type I collagen (Col1a1) expression in human Tenons conjunctival fibroblasts; format: cell-based; details: human Tenons conjunctival fibroblasts from three donors
Method: Likewise, for application in human, the dosage of VPA to be used was determined as in the rabbit model for effectiveness in reducing type I collagen. The effect of VPA on type I collagen expression in human Tenons conjunctival fibroblasts derived from three independent donors was investigated, and the results are as shown in FIG. 6B.

[3] = test system: rabbit model of microshunt implant surgery; assay: Rabbit model of microshunt implant surgery (PRESERFLO MicroShunt), VPA alone vs PBS; format: in vivo
Method: The rabbit model of microshunt implant surgery using the PRESERFLO® MicroShunt (Santen) was performed with a total of 11 injections of 300 μg/ml VPA, immediately after surgery, and once daily for first 7 days, followed by injections on days 10, 14 and 21 post-surgery. The rabbit eyes were evaluated by slit lamp photography (FIG. 7).
Confocal microscopy was used to correlate bleb appearance and function. It is known that significant positively correlating features include cyst size and vasculature density/tortuosity.

[4] = test system: primary rabbit conjunctival fibroblasts; assay: Type I collagen (Col1a1) expression and cell growth in primary rabbit conjunctival fibroblasts; format: cell-based
Method: For application in the rabbit model of microshunt implant surgery (PRESERFLO® MicroShunt, Santen), the dosage of VPA to be used was determined using primary rabbit conjunctival fibroblasts for (1) effectiveness in reducing type I collagen, and (2) non-toxicity on cell growth, as shown in FIG. 6.

[5] = test system: mouse model of conjunctival scarring; assay: Mouse model of conjunctival scarring, quantitative multiphoton imaging and histology of collagen; format: in vivo
From the text: The conjunctiva was dissected to reveal the sclera where an incision was made into the anterior chamber. The resulting fistula allowed aqueous humor to exit into and underneath the conjunctiva. The accumulated fluid underneath the sutured conjunctiva was observed as a conjunctival bleb. To determine whether VPA has the capacity to protect collagen architecture, quantitative multiphoton imaging as described in Xu S et al (J. Hepatol., 2014, 61(2):260-269) was used to measure collagen properties in the mouse model of conjunctival scarring treated with VPA. The onset of scarring, as indicated by peak production of collagen mRNA, was measured on day 7 post-surgery. The mature scar was measured on day 14 post-surgery when collagen mRNA production was subdued. To study the impact of VPA on the collagen architecture during the onset of scarring on day 7, mice were injected with 300 μg/ml VPA directly into the operated area immediately after surgery and on day 2. To determine the effect of VPA in the mature scar on day 14, mice were injected as above, with an additional injection on day 7. By this method, it could be readily observed in histologically-stained sections as well as multiphoton scans that collagen fibers in the VPA-treated eyes were thinner than those in the PBS-treated control eyes. Exemplary collagen fibers showing the thinning effect of VPA are indicated by the white arrowheads in FIG. 2.

[6] = 300 μg/ml VPA, 28 days post-surgery, vs PBS
[7] = 300 μg/ml VPA, day 28 rabbit tissues
[8] = 300 μg/ml VPA, day 28 rabbit tissues, vs PBS controls

SMILES: CO[C@@]12[C@H](COC(N)=O)C3=C(C(=O)C(C)=C(N)C3=O)N1C[C@@H]1N[C@@H]12 [MMC, mitomycin C]
- mRNA expression of Col1a1 ([1]; 0.1 mg/ml MMC, day 28 rabbit tissues, vs 0.4 mg/ml MMC and 0.1 mg/ml MMC+VPA, n=5): significantly higher
- bleb cysts (confocal microscopy) ([1]; rabbit, in vivo): large cysts; also recorded: smaller cysts
- bleb morphology (slit lamp) ([1]; rabbit, in vivo): starkly avascular and cystic bleb; also recorded: less avascular and mildly cystic bleb
- collagen fibers around implant tip (picrosirius red, polarised light) ([1]; rabbit, in vivo): thick collagen fibers encapsulating the implant

SMILES: CCCC(CCC)C(=O)O [VPA, valproic acid]
- lowest concentration effective in significantly reducing Col1a1 expression without disrupting cell proliferation [2]: 300 µg/mL
- bleb collagen fiber packing (confocal microscopy) ([3]; 300 μg/ml VPA, 28 days post-surgery, PBS tightly-packed): loosely packed collagen fibers
- bleb vasculature (confocal microscopy) ([3]; 300 μg/ml VPA, 28 days post-surgery, PBS tortuous): straight
- bleb collagen characteristics (histology) ([3]; 300 μg/ml VPA, 28 days post-surgery, compared to normal tissue): thinner and similarly organized array of collagen fibers
- COL1A1 and fibronectin fibers (immunofluorescent staining) [3, 6]: thinner and more diffusely distributed fibers
- bleb cysts (confocal microscopy) [3, 6]: large cysts
- Smad6 expression [3, 7]: significantly induced
- Vegfa expression [3, 7]: significantly elevated
- collagen transcript expression [3, 8]: significantly reduced
- fibronectin transcript expression [3, 8]: significantly reduced
- time a filtering bleb was maintained (slit lamp) ([3]; 11 injections of 300 μg/ml VPA, PBS bleb failed by day 14): at least 28 days
- lowest concentration effective in significantly reducing Col1a1 expression without disrupting cell proliferation [4]: 300 µg/mL
- collagen fibers in histologically-stained sections and multiphoton scans ([5]; 300 μg/ml VPA injected into operated area, vs PBS-treated control eyes): thinner
- number of collagen fibers per mm^2 ([5]; 300 μg/ml VPA, both time points (days 7 and 14), vs PBS): significantly reduced
- Collagen Reticulation Index (CRI) ([5]; 300 μg/ml VPA, day 7, vs PBS treatment): significant reduction
- Collagen Reticulation Index (CRI) ([5]; 300 μg/ml VPA, day 14 mature scar): lack of effect
- collagen area ratio (CAR) ([5]; 300 μg/ml VPA, days 7 and 14 post-surgery, vs PBS): significantly reduced
- collagen thickness (quantitative multiphoton analyses) ([5]; 300 μg/ml VPA, operated conjunctival sections, vs PBS): reduced
- collagen reticulation (measured as CRI and CARD) ([5]; 300 μg/ml VPA, post-operative conjunctiva): not induced
- collagen fiber density (CFD) ([5]; 300 μg/ml VPA, vs PBS controls): lack of significant difference
- collagen fibers around implant tip (picrosirius red, polarised light) ([1]; VPA 300 μg/mL with 0.1 mg/ml MMC (condition c)): reduced the presence of the thick fibers encapsulating the implant
